Measured values from publication PMC9078697, “Discovery and preliminary SAR of 14-aryloxy-andrographolide derivatives as antibacterial agents with immunosuppressant activity” (RSC Advances, 2018).

How the values were obtained:
Assay type in all cases: cell-based
S. aureus = test: Bacteriostatic screening (growth, OD630) against S. aureus; conditions: for inhibition rate SA (symbol /): at 250 μM of tested compound; for inhibition rate (%) SA: at 250 μM of the tested compound
Description: (§1) The strategy in this study was to submit these synthesized compounds to a preliminary screening test against E. coli, S. aureus and E. faecalis (ciprofloxacin was used as a reference compound; see Table 1). […] The tested compound or ciprofloxacin (positive drug) was dissolved in DMSO and diluted with LB liquid medium into a stock solution containing 20% DMSO before use; the stock solution of the carrier was 20% DMSO in LB liquid medium. All the experiments, including blank controls, were performed in triplicate. Bacteriostatic screening was performed by applying a modified protocol of the National Committee on Clinical Laboratory Standards (NCCLS).[29] Briefly, E. coli, S. aureus and E. faecalis cells (American Type Culture Collection, ATCC) were grown in LB plate medium for one passage, then seeded in LB liquid medium and cultured at 37 °C for 12 h. After being diluted 1000 times, 190 μL diluted cells were aliquoted to 96-well plates; then, 10 μL stock solution of carrier or a gradient amount of the tested compound or the positive compound, ciprofloxacin, were added; the final concentration of DMSO was 1% in all wells. The blank controls contained 1% DMSO and LB medium but no bacterial cells.

E. faecalis = test: Bacteriostatic screening (growth, OD630) against E. faecalis; conditions: for inhibition rate (%) EF: at 250 μM of the tested compound; for IC50: 24 h, IC50 generated when inhibition at 250 μM was higher than 80%
Description: as §1

E. coli = test: Bacteriostatic screening (growth, OD630) against E. coli; conditions: for inhibition rate EC (symbol /): at 250 μM of tested compound; for inhibition rate (%) EC: at 250 μM of the tested compound
Description: as §1

Row | SMILES | inhibition rate SA (symbol /) (S. aureus) | inhibition rate (%) EF (E. faecalis) | inhibition rate EC (symbol /) (E. coli) | inhibition rate (%) SA (S. aureus; 250 µM) | IC50 (E. faecalis) [µM] | inhibition rate (%) EC (E. coli; 250 µM) | inhibition rate (%) SA (S. aureus) | inhibition rate (%) EC (E. coli)
1 | C=C1CCC2C3(C)COC(C)(C)OC3CCC2(C)C1CC=C1C(=O)OCC1Oc1cccc2ccccc12 (stereo not drawn) [5b14, (14β)-(Naphthyl-1′-oxy)-3,19-acetonylidene andrographolide] | / (“/”represents no inhibition or lower than 10% inhibition rate at 250 μM of tested compound) | (47) % | / (“/”represents no inhibition or lower than 10% inhibition rate at 250 μM of tested compound) | – | – | – | – | –
2 | C=C1CCC2C3(C)COC(C)(C)OC3CCC2(C)C1CC=C1C(=O)OCC1Oc1cccnc1[N+](=O)[O-] (stereo not drawn) [5b15, (14β)-(2′-Nitro-pyridinyl-3′-oxy)-3,19-acetonylidene andrographolide] | – | – | / (“/”represents no inhibition or lower than 10% inhibition rate at 250 μM of tested compound) | (33) % | 38.4 ± 3.4 | – | – | –
3 | C=C1CCC2C(C)(CO)C(O)CCC2(C)C1CC=C1C(=O)OCC1Oc1ccc([N+](=O)[O-])cc1F (stereo not drawn) [6a2, (14α)-(2′-Fluoro-4′-nitro)phenoxy-andrographolide] | – | – | – | (65) % | 38.7 ± 4.5 | (67) % | – | –
4 | C=C1CCC2C(C)(CO)C(O)CCC2(C)C1CC=C1C(=O)OCC1Oc1ccc([N+](=O)[O-])cc1OC (stereo not drawn) [6a3, (14α)-(2′-Methoxy-4′-nitro)phenoxy-andrographolide] | – | – | – | (17) % | 113 ± 14.3 | (31) % | – | –
5 | C=C1CCC2C(C)(CO)C(O)CCC2(C)C1CC=C1C(=O)OCC1Oc1ccc([N+](=O)[O-])c(F)c1 (stereo not drawn) [6a4, (14α)-(3′-Fluoro-4′-nitro)phenoxy-andrographolide] | / (“/”represents no inhibition or lower than 10% inhibition rate at 250 μM of tested compound) | (44) % | / (“/”represents no inhibition or lower than 10% inhibition rate at 250 μM of tested compound) | – | – | – | – | –
6 | C=C1CCC2C(C)(CO)C(O)CCC2(C)C1CC=C1C(=O)OCC1Oc1ccc([N+](=O)[O-])c(OC)c1 (stereo not drawn) [6a5, (14α)-(3′-methoxy-4′-nitro)phenoxy-andrographolide] | – | – | – | (10) % | 50.4 ± 2.7 | (11) % | – | –
7 | C=C1CCC2C(C)(CO)C(O)CCC2(C)C1CC=C1C(=O)OCC1Oc1ccccc1C(=O)OCC (stereo not drawn) [6a8, (14α)-(2′-Carboxyethyl ester)phenoxy-andrographolide] | – | – | – | – | 83.3 ± 8.3 | – | (17) % | (21) %
8 | C=C1CCC2C(C)(CO)C(O)CCC2(C)C1CC=C1C(=O)OCC1Oc1ccc(C(=O)OCC)cc1 (stereo not drawn) [6a9, (14α)-(4′-Carboxyethyl ester)phenoxy-andrographolide] | / (“/”represents no inhibition or lower than 10% inhibition rate at 250 μM of tested compound) | – | / (“/”represents no inhibition or lower than 10% inhibition rate at 250 μM of tested compound) | – | 38.3 ± 5.9 | – | – | –
9 | C=C1CCC2C(C)(CO)C(O)CCC2(C)C1CC=C1C(=O)OCC1Oc1ccccc1OC (stereo not drawn) [6a12, (14α)-(2′-Methoxy)phenoxy-andrographolide] | – | – | / (“/”represents no inhibition or lower than 10% inhibition rate at 250 μM of tested compound) | (14) % | 75.6 ± 17.8 | – | – | –
10 | C=C1CCC2C(C)(CO)C(O)CCC2(C)C1CC=C1C(=O)OCC1Oc1cccnc1[N+](=O)[O-] (stereo not drawn) [6a15, (14α)-(2′-Nitro-pyridinyl-3′-oxy)andrographolide] | – | – | – | (13) % | 56.7 ± 5.5 | – | – | (14) %
11 | C=C1CCC2C(C)(CO)C(O)CCC2(C)C1CC=C1C(=O)OCC1Oc1ccnc2ccccc12 (stereo not drawn) [6a16, (14α)-(Quinolyl-4′-oxy)andrographolide] | – | – | / (“/”represents no inhibition or lower than 10% inhibition rate at 250 μM of tested compound) | – | 65.8 ± 13.5 | – | (22) % | –
12 | C=C1CCC2C(C)(CO)C(O)CCC2(C)C1CC=C1C(=O)OCC1Oc1ccc([N+](=O)[O-])cc1F (stereo not drawn) [6b2, (14β)-(2′-Fluoro-4′-nitro)phenoxy-andrographolide] | – | – | – | (25) % | 24.4 ± 3.2 | (42) % | – | –
13 | C=C1CCC2C(C)(CO)C(O)CCC2(C)C1CC=C1C(=O)OCC1Oc1ccc([N+](=O)[O-])c(F)c1 (stereo not drawn) [6b4, (14β)-(3′-Fluoro-4′-nitro)phenoxy-andrographolide] | – | – | – | – | 19.6 ± 2.7 | – | (28) % | (60) %
14 | C=C1CCC2C(C)(CO)C(O)CCC2(C)C1CC=C1C(=O)OCC1Oc1ccc([N+](=O)[O-])c(OC)c1 (stereo not drawn) [6b5, (14β)-(3′-Methoxy-4′-nitro)phenoxy-andrographolide] | – | – | – | (37) % | 21.8 ± 2.5 | (23) % | – | –
15 | C=C1CCC2C(C)(CO)C(O)CCC2(C)C1CC=C1C(=O)OCC1Oc1ccccc1[N+](=O)[O-] (stereo not drawn) [6b6, (14β)-(2′-Nitro)phenoxy-andrographolide] | – | – | – | – | 15.9 ± 9 | – | (12) % | (28) %
16 | C=C1CCC2C(C)(CO)C(O)CCC2(C)C1CC=C1C(=O)OCC1Oc1cccc([N+](=O)[O-])c1 (stereo not drawn) [6b7, (14β)-(3′-Nitro)phenoxy-andrographolide] | – | – | / (“/”represents no inhibition or lower than 10% inhibition rate at 250 μM of tested compound) | – | 17.8 ± 4.2 | – | 26% | –
17 | C=C1CCC2C(C)(CO)C(O)CCC2(C)C1CC=C1C(=O)OCC1Oc1ccccc1C(=O)OCC (stereo not drawn) [6b8, (14β)-(2′-Carboxyethyl ester)phenoxy-andrographolide] | / (“/”represents no inhibition or lower than 10% inhibition rate at 250 μM of tested compound) | – | – | – | 89.7 ± 12 | – | – | (21) %
18 | C=C1CCC2C(C)(CO)C(O)CCC2(C)C1CC=C1C(=O)OCC1Oc1ccc(C(=O)OCC)cc1 (stereo not drawn) [6b9, (14β)-(4′-Carboxyethyl ester)phenoxy-andrographolide] | – | – | – | – | 53.3 ± 4.1 | – | (40) % | (17) %
19 | C=C1CCC2C(C)(CO)C(O)CCC2(C)C1CC=C1C(=O)OCC1Oc1ccc(C#N)cc1 (stereo not drawn) [6b10, (14β)-(4′-Cyano)phenoxy-andrographolide] | – | – | – | – | 72.1 ± 9.4 | – | (29) % | (39) %
20 | C=C1CCC2C(C)(CO)C(O)CCC2(C)C1CC=C1C(=O)OCC1Oc1ccc(OC)cc1 (stereo not drawn) [6b11, (14β)-(4′-Methoxy)phenoxy-andrographolide] | / (“/”represents no inhibition or lower than 10% inhibition rate at 250 μM of tested compound) | (17) % | / (“/”represents no inhibition or lower than 10% inhibition rate at 250 μM of tested compound) | – | – | – | – | –
21 | C=C1CCC2C(C)(CO)C(O)CCC2(C)C1CC=C1C(=O)OCC1Oc1ccccc1OC (stereo not drawn) [6b12, (14β)-(2′-Methoxy)phenoxy-andrographolide] | – | – | – | (13) % | 20.8 ± 4.5 | – | – | (12) %
22 | C=C1CCC2C(C)(CO)C(O)CCC2(C)C1CC=C1C(=O)OCC1Oc1cccc(OC)c1 (stereo not drawn) [6b13, (14β)-(3′-Methoxy)phenoxy-andrographolide] | – | – | – | – | 138 ± 5.4 | – | 13% | 15%
23 | C=C1CCC2C(C)(CO)C(O)CCC2(C)C1CC=C1C(=O)OCC1Oc1cccc2ccccc12 (stereo not drawn) [6b14, (14β)-(Naphthyl-1′-oxy)andrographolide] | – | (50) % | – | – | – | – | (18) % | (35) %
24 | C=C1CCC2C(C)(CO)C(O)CCC2(C)C1CC=C1C(=O)OCC1Oc1cccnc1[N+](=O)[O-] (stereo not drawn) [6b15, (14β)-(2′-Nitro-pyridinyl-3′-oxy)andrographolide] | – | – | – | (41) % | 29.3 ± 2.1 | – | – | (14) %
25 | C=C1CCC2C(C)(CO)C(O)CCC2(C)C1CC=C1C(=O)OCC1Oc1ccnc2ccccc12 (stereo not drawn) [6b16, (14β)-(Quinolyl-4′-oxy)andrographolide] | / (“/”represents no inhibition or lower than 10% inhibition rate at 250 μM of tested compound) | – | / (“/”represents no inhibition or lower than 10% inhibition rate at 250 μM of tested compound) | – | 58.5 ± 4.2 | – | – | –
